In article PMC9151520 (Archives of Toxicology, 2022):
Values joined by “and” are separate entries in the source; they are usually repeats but may differ in a detail not shown here. Equal entries are not always repeated. Where two headings read alike, the source gives them in different places.

How the values were obtained:
[1] = system: p53 signaling (p53RE-bla HCT-116 cells); experiment: cells; format: cell-based
[2] = system: p53 signaling (p53RE-bla HCT-116 cells)
[3] = system: p53 signaling (p53RE-bla HCT-116 cells); remark: listed apart in the source
[4] = system: p53RE-bla HCT-116 cells
[5] = rat
[6] = system: p53RE-bla HCT-116 cells; experiment: cells; settings: Homo sapiens
[7] = system: p53 signaling (p53RE-bla HCT-116 cells); experiment: cells; settings: Homo sapiens; for EC50: HCT-116, read-out: p53 activation EC50, primary screening
[8] = Homo sapiens, HCT-116, read-out: EC50, p53 activation, cherry pick confirmation
[9] = Homo sapiens, HCT-116, read-out: EC50, p53 activation, primary screening
[10] = Homo sapiens, HCT-116, read-out: Efficacy, p53 activation, cherry pick confirmation
[11] = Homo sapiens, HCT-116, read-out: Efficacy, p53 activation, primary screening
[12] = HCT-116, read-out: EC50, viability, cherry pick confirmation
[13] = Homo sapiens, HCT-116, read-out: p53 activation EC50, cherry pick confirmation
[14] = Homo sapiens, HCT-116, read-out: p53 activation EC50, primary screening
[15] = Homo sapiens, HCT-116, read-out: p53 activation efficacy, cherry pick confirmation
[16] = Homo sapiens, HCT-116, read-out: p53 activation efficacy, primary screening
[17] = HCT-116, read-out: Viability EC50, cherry pick confirmation
[18] = HCT-116, read-out: Viability EC50, primary screening
[19] = read-out: Viability EC50, cherry pick confirmation
[20] = HCT-116, read-out: p53 activation efficacy, primary screening
[21] = HCT-116, read-out: Viability EC50
[22] = read-out: Viability EC50, primary screening

| Structure (SMILES) | EC50 [1, 13] [µM] | EC50 [1, 14] [µM] | Emax [1, 15] [%] | Emax [1, 16] [%] | p53 activation EC50, cherry pick confirmation [2] | p53 activation EC50, primary screening [2] | p53 activation efficacy, cherry pick confirmation [2] | p53 activation efficacy, primary screening [2] | p53 activation EC50, cherry pick confirmation [3] | p53 activation EC50, primary screening [3] | p53 activation efficacy, cherry pick confirmation [3] | p53 activation efficacy, primary screening [3] | Viability EC50, cherry pick confirmation [4] | Viability EC50, primary screening [4] | EC50 [6, 17] [µM] | EC50 [6, 18] [µM] | other results |
| --- | --- | --- | --- | --- | --- | --- | --- | --- | --- | --- | --- | --- | --- | --- | --- | --- | --- |
| CCOP(=S)(OCC)Oc1nc(Cl)n(C(C)C)n1 [Isazofos] |  |  |  |  |  |  |  |  |  |  |  |  |  |  |  |  | p53 activation EC50 [1]: inactive; p53 activation efficacy [1]: inactive; EC50 [2]: 8.27 µM; p53 activation efficacy [2]: 50.5712 and 50.6263; p53 activation EC50 [3]: inactive; EC50 ([3]; read-out: p53 activation EC50): 1.62 µM; Viability EC50 [4]: inactive; Viability efficacy [4]: inactive; Depletion after 16 h of incubation with cells [5]: 97.88 ± 0.31% |
| Oc1cc(Cl)c(Cl)c(Cl)c1 [3,4,5-Trichlorophenol] |  |  |  |  |  |  |  |  |  |  |  |  |  |  |  |  | EC50 [1, 8]: 48.4 µM; EC50 [1, 9]: 40.3 µM; Emax [1, 10]: 40.3%; Emax [1, 11]: 25.7%; EC50, p53 activation, cherry pick confirmation [2]: inactive; EC50, p53 activation, primary screening [2]: inactive; Efficacy, p53 activation, cherry pick confirmation [2]: inactive; Efficacy, p53 activation, primary screening [2]: inactive; EC50, p53 activation, cherry pick confirmation [3]: inactive; EC50, p53 activation, primary screening [3]: inactive; Efficacy, p53 activation, cherry pick confirmation [3]: inactive; Efficacy, p53 activation, primary screening [3]: inactive; EC50, viability, cherry pick confirmation [4]: inactive; EC50, viability, primary screening [4]: inactive; Efficacy, viability, primary screening [4]: inactive; EC50 [6, 12]: 27.4 µM |
| CC(C)C[C@H](NC(=O)[C@H](Cc1ccccc1)NC(=O)c1cnccn1)B(O)O [Bortezomib] | 0.101 | 0.0122 | 134 | 104 | inactive | inactive | inactive | inactive | inactive | inactive | inactive | inactive | inactive | inactive | 0.397 | 0.428 |  |
| CCOc1ccc2c(c1)C(C)=CC(C)(C)N2 [Ethoxyquin] |  |  |  |  | inactive |  | inactive |  | inactive | inactive | inactive | inactive | inactive | inactive | 51.1 | 54.2 | p53 activation EC50, cherry pick confirmation [1]: inactive; p53 activation EC50, primary screening [1]: inactive; p53 activation efficacy, cherry pick confirmation [1]: inactive; p53 activation efficacy, primary screening [1]: inactive; EC50 [4, 19]: 48.2 µM; EC50 [7]: 39.1 µM; Emax [7, 20]: 50.4% |
| CC1CCC(C(C)C)C(OC(=O)c2ccccc2N)C1 (stereo not drawn) [Menthyl anthranilate] | 0.837 | 48.8 | 40.4 | 62.5 | inactive |  | inactive |  | inactive | inactive | inactive | inactive | inactive | inactive | 33.8 | 36 | EC50 [7]: 34.8 µM; Emax [7, 20]: 70.8% |
| CC(C)=CCC1=C(O)C(=O)c2ccccc2C1=O [Lapachol] |  |  |  |  |  |  |  |  |  |  |  |  |  |  |  |  | p53 activation efficacy [1]: 104.839; EC50 ([1]; read-out: p53 activation EC50): 3.38 µM; p53 activation EC50 [2]: inactive; p53 activation EC50 [3]: inactive; Viability EC50 [4]: inactive; EC50 [6, 21]: 1.38 µM |
| CN(C)c1ccc(C(=C2C=CC(=[N+](C)C)C=C2)c2ccc(N(C)C)cc2)cc1 [Gentian Violet] |  |  |  |  |  |  |  |  |  |  |  |  |  |  |  |  | EC50 [1, 8]: 23.6 µM; EC50 [1, 9]: 51.1 µM; Emax [1, 10]: 48.7%; Emax [1, 11]: 65.5%; EC50, p53 activation, cherry pick confirmation [2]: inactive; EC50, p53 activation, primary screening [2]: inactive; Efficacy, p53 activation, cherry pick confirmation [2]: inactive; Efficacy, p53 activation, primary screening [2]: inactive; EC50, p53 activation, cherry pick confirmation [3]: inactive; EC50, p53 activation, primary screening [3]: inactive; Efficacy, p53 activation, cherry pick confirmation [3]: inactive; Efficacy, p53 activation, primary screening [3]: inactive; EC50 ([4]; read-out: EC50, viability, cherry pick confirmation): 27.6 µM and 21.3 µM; EC50 ([4]; read-out: EC50, viability, primary screening): 16 µM and 24.9 µM; EC50 [6, 12]: 22 µM; EC50 ([6]; HCT-116, read-out: EC50, viability, primary screening): 29.2 µM |
| COc1cc(/C=C/C(=O)CC(=O)/C=C/c2ccc(O)c(OC)c2)ccc1O [Curcumin] |  | 15.4 |  | 65.1 | inactive | inactive | inactive | inactive | inactive | inactive | inactive | inactive | inactive |  | 16.3 | 31.7 | p53 activation EC50, cherry pick confirmation [1]: inactive; p53 activation efficacy, cherry pick confirmation [1]: inactive; EC50 [4, 22]: 38 µM and 46.9 µM |
| CC(C)C[C@H](NC(=O)[C@H](CCc1ccccc1)NC(=O)CN1CCOCC1)C(=O)N[C@@H](Cc1ccccc1)C(=O)N[C@@H](CC(C)C)C(=O)[C@@]1(C)CO1 [Carfilzomib] | 0.0597 | 0.142 | 111 | 82 | inactive | inactive | inactive | inactive | inactive | inactive | inactive | inactive | inactive | inactive |  | 0.75 |  |
| Nc1nc(N)c2nc(CNc3ccc(C(=O)N[C@@H](CCC(=O)O)C(=O)O)cc3)cnc2n1 [Aminopterin] |  |  |  |  |  |  |  |  |  |  |  |  |  |  |  |  | p53 activation efficacy [1]: 45.6293; Emax ([1]; Homo sapiens, HCT-116, read-out: p53 activation efficacy): 39.2%; p53 activation efficacy [2]: 37.0427; p53 activation EC50 [3]: inactive; p53 activation efficacy [3]: inactive; Viability EC50 [4]: inactive; Emax ([7]; HCT-116, read-out: p53 activation efficacy): 48.5%; EC50 [6, 21]: 0.191 µM |
| COC(=O)C1=C(C)NC(COC(N)=O)=C(C(=O)OC(C)C)C1c1cccc(Cl)c1Cl (stereo not drawn) [Lemildipine] |  |  |  |  | inactive |  | inactive |  | inactive | inactive | inactive | inactive | inactive | inactive | 19.9 |  | p53 activation EC50, cherry pick confirmation [1]: inactive; p53 activation EC50, primary screening [1]: inactive; p53 activation efficacy, cherry pick confirmation [1]: inactive; p53 activation efficacy, primary screening [1]: inactive; Viability efficacy, primary screening [4]: inactive; EC50 [7]: 20.7 µM; Emax [7, 20]: 59.7% |
| CO[C@@]12[C@H](COC(N)=O)C3=C(C(=O)C(C)=C(N)C3=O)N1C[C@@H]1N[C@@H]12 [Mitomycin C] |  |  |  |  |  |  |  |  |  |  |  |  |  |  |  |  | EC50 [1, 8]: 2.12 µM; Emax [1, 10]: 134%; EC50, p53 activation, cherry pick confirmation [2]: inactive; Efficacy, p53 activation, cherry pick confirmation [2]: inactive; EC50, p53 activation, cherry pick confirmation [3]: inactive; EC50, p53 activation, primary screening [3]: inactive; Efficacy, p53 activation, cherry pick confirmation [3]: inactive; Efficacy, p53 activation, primary screening [3]: inactive; EC50, viability, cherry pick confirmation [4]: inactive; EC50, viability, primary screening [4]: inactive; Efficacy, viability, primary screening [4]: inactive; EC50 [6, 12]: 17.8 µM |
| O=Nc1ccc(Nc2ccccc2)cc1 [4-Nitrosodiphenylamine] | 27.6 | 47.6 | 84.9 | 61.2 | inactive | inactive | inactive | inactive | inactive | inactive | inactive | inactive | inactive | inactive | 40.8 |  | Viability efficacy, primary screening [4]: inactive; EC50 [4, 19]: 36.3 µM |
| Oc1ccc(Cl)cc1Sc1cc(Cl)ccc1O [Fenticlor] | 18.1 | 34.2 | 54.9 | 52.2 | inactive | inactive | inactive | inactive | inactive | inactive | inactive | inactive |  | inactive |  | 27.7 | EC50 [4, 22]: 18.7 µM |
